Experimental data published in EP0310322A2, “Use of thromboxane B2 to constrict the pupil and lower intraocular pressure” (ALLERGAN, INC, priority 1987, dated 1989).

How the values were obtained:
pupil [1] = test: Pupil diameter after intracameral injection in flurbiprofen-pretreated sedated rabbits (Example 2); format: in vivo, New Zealand albino rabbits
Experimental: Seven New Zealand albino rabbits were treated, topically, with 0.03% flurbiprofen (Ocufen, Allergan) every 1/2 hour for two hours to inhibit endogenous synthesis of thromboxane. Following flurbiprofen treatment the rabbits were sedated with a 1:1 mixture of Ketamine and Rompum and the pupil diameters of both eyes were measured and recorded as before. 50ug (6ul) of TXB2 was injected intracamerally into the right eye of each rabbit and an equal volume of vehicle was administered to the left eyes. The pupil diameters were measured five minutes following the injections. This does of TXB2 was chosen because it is 1000 times the concentration of TXB2 found in clotting blood in rabbits (Ali and Mohammed, 1986). Carbachol 200ng (1ul) was injected into both eyes and the pupil diameters recorded after a five minute and a ten minute duration.
Refer to Figure 1. Next, both eyes were injected with 200ng (1ul) of carbachol.

pupil [2] = test: Pupil diameter after sequential intracameral injections in a sedated rabbit (Example 1); format: in vivo, New Zealand albino rabbit; conditions: for Pupil Diameter: 5 min after injection
Experimental: One New Zealand albino rabbit (2-4Kg) was sedated with an intramuscular injection of a 1:1 mixture of ketamine (Vetalar, Parke-Davis and xylazine (Rompum, Haver-Lockhart). The pupil diameters of both eyes were measured under standard room lighting with an optistick and recorded. The right eye was injected intracamerally with 100ng of thromboxane B₂ (12ul). The contralateral eye was injected with an equal volume of the vehicle solution, 0.05% BSA (Bovine Serum Albumin) in 0.01N CH₃COOH. Hamilton syringes with 30 gauge needles were used for the injection. Five minutes later the pupil diameters of both eyes were measured and recorded. Sequential injections of thromboxane B₂ (Sigma) were made into the right eye and an equal volume of vehicle into the left. Five minutes after each injection the pupil diameters were measured and recorded. A total of three injections of thromboxane B₂ (TXB2) were administered to the right eye; 100ng, 1ug, 10ug (12ul). After the last injection of TXB2, carbachol, 200ng (lul) was administered to both eyes, intracamerally, and the pupil diameters were measured after five minutes.

pupil [3] = test: Pupil diameter after topical drops in awake monkeys (Example 4); format: in vivo, Cebus apella monkeys; conditions: Cebus monkeys, total dose per eye 2.5 micrograms to 1 mg
Experimental: Eight Cebus apella monkeys were treated topically with thromboxane B₂ in one eye and normal saline in the contralateral eye. The monkeys were awake and alert and seated in primate chairs for the duration of the experiment. The thromboxane B₂ concentrations used were 0.625ug, 1.25ug, 6.25ug, 12.5ug, 62.5ug, 125.0ug and 250ug per drop. A 50ul drop was administered following the baseline pupil diameter measurement. Three more drops were given at 15 minute intervals. Total dose per eye after 4 drops ranged between 2.5 micrograms and 1 mg. Pupil diameter was measured just before each administration. The last measurement was taken at 60 minutes.
In the eight Cebus monkeys with TXB2-treated eyes, the pupil diameters decreased 0.75 to […] at 30 minutes.
The range of doses used probably represented the upper end of the dose-response curve. The 0.75 to […] pupil constriction represents a significant response in the small Cebus eye.

pupil [4] = test: Pupil diameter after intracameral injection in flurbiprofen-pretreated sedated cats (Example 3); format: in vivo, domestic cats; conditions: cat
Experimental: Fifteen male and female domestic cats were treated topically with 0.03% flurbiprofen (in both eyes) every 1/2 hours for two hours to inhibit endogenous thromboxane synthesis. The cats were sedated with 0.5 to 0.75ml of Rompum (20mg/ml) by intramuscular injection. […] The pupil diameters of both eyes were measured with an optistick and recorded. The right eye of each cat was injected intracamerally with one concentration of thromboxane B₂ ranging from a high of 500ng (10ul) to a low of 10ng (10ul). The contralateral eye was injected with an equal volume of the vehicle: saline. The pupil diameters were measured five and ten minutes after the injections. The cats were allowed to regain consciousness while in the laboratory.
Increasing concentrations of TXB2 led to greater constriction of the pupil (miosis). Maximum constriction of the pupil occurred at a dose of 500ng. The ED₅₀ was 70ng. Refer to Figure 2. […] The filled circles are the mean pupil diameters of the TXB2 treated eyes. The pupil diameters of the vehicle treated eyes are shown by the open circles.

| SMILES | Pupil Diameter (pupil [1]; carbachol 200ng (1ul) injected into both eyes after TXB2 or vehicle, measured after 5 and 10 min) | pupil constriction (pupil [2]; rabbit #8394, carbachol 200ng (1ul) intracameral, both eyes) | Pupil Diameter (pupil [2]; rabbit #8394, eye OD (previously TXB2 treated), carbachol 200ng intracameral) [mm] | Pupil Diameter (pupil [2]; rabbit #8394, eye OS (previously vehicle treated), carbachol 200ng intracameral) [mm] | ability of the pupillary sphincter to contract when stimulated by carbachol (pupil [1]; rabbits, topical 0.03% flurbiprofen pretreatment, TXB2 50ug intracameral, then carbachol 200ng) | pupil diameters versus vehicle eyes (pupil [1]; seven rabbits, 0.03% flurbiprofen pretreatment, 50ug (6ul) intracameral, 5 min after injection) | dose-response relationship of pupil constriction (pupil [3]) | dose at which maximum constriction of the pupil occurred (pupil [4]; intracameral, doses 10ng to 500ng (10ul)) [ng] | effect on pupil diameter (pupil [4]; intracameral, doses 10ng to 500ng, measured 5 and 10 min after injection) | ED₅₀ (pupil [4]; pupil constriction (miosis), intracameral doses 10ng to 500ng (10ul), flurbiprofen pretreatment) [ng] | Pupil Diameter (pupil [2]; rabbit #8394, eye OD, TXB2 100ng intracameral (12ul), baseline 6.0) [mm] | Pupil Diameter (pupil [2]; rabbit #8394, eye OD, second sequential TXB2 dose 1ug intracameral) [mm] | Pupil Diameter (pupil [2]; rabbit #8394, eye OD, third sequential TXB2 dose 10ug intracameral) [mm] | changes in pupil diameter (pupil [2]; rabbit #8394, three sequential intracameral doses 100ng, 1ug and 10ug) |
| --- | --- | --- | --- | --- | --- | --- | --- | --- | --- | --- | --- | --- | --- | --- |
| C[N+](C)(C)CCOC(N)=O [Carbachol, carbachol, reference compound] | decreased significantly and to the same degree in both eyes | constricted an expected amount | 3 | 1.5 | – | – | – | – | – | – | – | – | – | – |
| CCCCC[C@H](O)/C=C/[C@H]1OC(O)C[C@H](O)[C@@H]1C/C=C\CCCC(=O)O (some centres unmarked) [TXB2, thromboxane B₂] | – | – | – | – | nor TXB2 administration affected the ability of the pupillary sphincter to contract | no different from those eyes receiving vehicle | no dose-response relationship was observed | 500 | dose-related effect on pupil diameter | 70 | 5 | 5 | 5.5 | no significant changes in pupil diameter |
